Assay results: patent publication US8927500B2, “Peptidomimetic macrocycles” (Aileron Therapeutics, Inc., priority 2012, dated 2015)
Where two headings read alike, the source gives them in different places.

How the values were obtained:
[1] = molecular target: T1, MDMX (Homo sapiens, UniProt O15151); experiment: Competitive fluorescence polarization assay for MDMX; type: binding; conditions: competitive FP assay
T1 sequence (O15151 1-125): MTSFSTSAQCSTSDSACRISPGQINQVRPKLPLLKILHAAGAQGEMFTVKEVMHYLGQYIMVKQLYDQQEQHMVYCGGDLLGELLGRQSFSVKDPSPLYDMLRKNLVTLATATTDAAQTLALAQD

[2] = molecular target: MDM2 (Homo sapiens, UniProt Q00987); experiment: Competitive fluorescence polarization assay for MDM2; type: binding; conditions: competitive FP assay, MDM2
Chain of MDM2 (Q00987 1-125): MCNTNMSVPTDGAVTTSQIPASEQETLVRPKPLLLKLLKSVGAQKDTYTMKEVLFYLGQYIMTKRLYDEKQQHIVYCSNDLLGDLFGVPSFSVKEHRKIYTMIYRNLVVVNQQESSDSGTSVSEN

| IC50 ([1]; read-out: IC50 (MDMX)) [nM] | Ki ([1]; read-out: Ki (MDMX)) [nM] | IC50 ([2]; read-out: IC50 (MDM2)) [nM] | Ki ([2]; read-out: Ki (MDM2)) [nM] | Compound | IC50 ([1]; IC50 (MDMX)) [nM] | Ki ([1]; Ki (MDMX)) [nM] | IC50 ([2]; IC50 (MDM2)) [nM] | Ki ([2]; Ki (MDM2)) [nM] |
| --- | --- | --- | --- | --- | --- | --- | --- | --- |
| 100 to 1000 | 10 to 100 | 10 to 100 | < 10 | CCCC[C@H](NC(=O)[C@H](C)NC(=O)[C@H](C)NC(=O)[C@]1(C)CCCC=CCCCCCC[C@@](C)(NC(=O)[C@H](Cc2ccccc2)NC(=O)[C@@H](NC(=O)[C@H](CC(C)C)NC(C)=O)[C@@H](C)O)C(=O)N[C@@H](C)C(=O)N[C@@H](Cc2ccc(O)cc2)C(=O)N[C@@H](Cc2c[nH]c3ccccc23)C(=O)N[C@@H](C)C(=O)N[C@@H](CCC(N)=O)C(=O)N[C@@H](CC(C)C)C(=O)N1)C(=O)N[C@H](CC(C)C)C(N)=O (single isomer, unassigned) [compound 85] | – | – | – | – |
| 100 to 1000 | 10 to 100 | < 10 | < 10 | CC(=O)N[C@@H](CC(C)C)C(=O)N[C@H](C(=O)N[C@@H](Cc1ccccc1)C(=O)N[C@]1(C)CCCCCCC=CCCC[C@@](C)(C(=O)N[C@@H](CO)C(=O)N[C@H](C(=O)NCC(N)=O)C(C)C)NC(=O)[C@H](CC(C)C)NC(=O)[C@H](CCC(N)=O)NC(=O)[C@H](C)NC(=O)[C@H](Cc2c[nH]c3ccccc23)NC(=O)[C@H](Cc2ccc(O)cc2)NC(=O)[C@H](C(C)C)NC1=O)[C@@H](C)O (single isomer, unassigned) [compound 146] | – | – | – | – |
| 100 to 1000 | 10 to 100 | < 10 | < 10 | CC(=O)N[C@@H](CC(C)C)C(=O)N[C@H](C(=O)N[C@@H](Cc1cccc(Cl)c1)C(=O)N[C@]1(C)CCCCCCC=CCCC[C@@](C)(C(=O)N[C@@H](CO)C(=O)N[C@@H](C)C(=O)N[C@@H](C)C(N)=O)NC(=O)[C@H](CC(C)C)NC(=O)[C@H](CCC(N)=O)NC(=O)[C@H](C)NC(=O)[C@H](Cc2c[nH]c3ccccc23)NC(=O)[C@H](Cc2ccc(O)cc2)NC(=O)[C@H](CCC(=O)O)NC1=O)[C@@H](C)O (single isomer, unassigned) [compound 156] | – | – | – | – |
| 100 to 1000 | 10 to 100 | < 10 | < 10 | CC(=O)N[C@@H](CC(C)C)C(=O)N[C@H](C(=O)N[C@@H](Cc1ccccc1)C(=O)N[C@]1(C)CCCCCCC=CCCC[C@@](C)(C(=O)N[C@@H](CO)C(=O)N[C@@H](C)C(=O)N[C@@H](C)C(N)=O)NC(=O)[C@H](CC(C)C)NC(=O)[C@H](CCC(N)=O)NC(=O)[C@H](C)NC(=O)[C@H](Cc2c[nH]c3ccccc23)NC(=O)[C@H](CCC(=O)O)NC(=O)[C@H](C)NC1=O)[C@@H](C)O (single isomer, unassigned) [compound 166] | – | – | – | – |
| 100 to 1000 | 100 to 1000 | 10 to 100 | < 10 | CC(=O)N[C@@H](CC(C)C)C(=O)N[C@H](C(=O)N[C@@H](Cc1ccccc1)C(=O)N[C@]1(C)CCCCCCC=CCCC[C@@](C)(C(=O)N[C@@H](CO)C(=O)N[C@@H](C)C(=O)N[C@@H](C)C(N)=O)NC(=O)[C@H](CC(C)C)NC(=O)[C@H](CCC(N)=O)NC(=O)[C@H](C)NC(=O)[C@H](Cc2c[nH]c3ccccc23)NC(=O)[C@H](CO)NC(=O)[C@H](C)NC1=O)[C@@H](C)O (single isomer, unassigned) [compound 167] | – | – | – | – |
| 100 to 1000 | 10 to 100 | < 10 | < 10 | CC[C@H](C)[C@H](NC(C)=O)C(=O)N[C@H](C(=O)N[C@@H](Cc1ccccc1)C(=O)N[C@]1(C)CCCCCCC=CCCC[C@@](C)(C(=O)N[C@@H](C)C(=O)N[C@@H](C)C(=O)N[C@H](C(=O)N[C@H](C)C(N)=O)[C@@H](C)CC)NC(=O)[C@H](CC(C)C)NC(=O)[C@H](CCC(N)=O)NC(=O)[C@H](C)NC(=O)[C@H](Cc2c[nH]c3ccccc23)NC(=O)[C@H](Cc2c[nH]cn2)NC(=O)[C@H](CCC(=O)O)NC1=O)[C@@H](C)O (single isomer, unassigned) [compound 173] | – | – | – | – |
| > 1000 | 100 to 1000 | 10 to 100 | < 10 | CC[C@H](C)[C@H](NC(C)=O)C(=O)N[C@H](C(=O)N[C@@H](Cc1ccccc1)C(=O)N[C@]1(C)CCCCCCC=CCCC[C@@](C)(C(=O)N[C@@H](C)C(=O)N[C@@H](Cc2c[nH]cn2)C(=O)N[C@@H](Cc2ccccc2)C(=O)N[C@@H](C)C(N)=O)NC(=O)[C@H](CC(C)C)NC(=O)[C@H](CCC(N)=O)NC(=O)[C@H](C)NC(=O)[C@H](Cc2c[nH]c3ccccc23)NC(=O)[C@H](Cc2ccc(O)cc2)NC(=O)[C@H](Cc2ccccc2)NC1=O)[C@@H](C)O (single isomer, unassigned) [compound 185] | – | – | – | – |
| 100 to 1000 | 10 to 100 | 10 to 100 | < 10 | CC[C@H](C)[C@H](NC(C)=O)C(=O)N[C@H](C(=O)N[C@@H](Cc1ccccc1)C(=O)N[C@]1(C)CCCCCCC=CCCC[C@@](C)(C(=O)N[C@@H](C)C(=O)N[C@@H](Cc2c[nH]cn2)C(=O)N[C@@H](Cc2ccccc2)C(=O)N[C@@H](C)C(N)=O)NC(=O)[C@H](CC(C)C)NC(=O)[C@H](CCC(N)=O)NC(=O)[C@H](C)NC(=O)[C@H](Cc2c[nH]c3ccccc23)NC(=O)[C@H](Cc2c[nH]cn2)NC(=O)[C@H](CCC(=O)O)NC1=O)[C@@H](C)O (single isomer, unassigned) [compound 189] | – | – | – | – |
| 100 to 1000 | 100 to 1000 | 10 to 100 | < 10 | CC[C@H](C)[C@H](NC(C)=O)C(=O)N[C@H](C(=O)N[C@@H](Cc1ccccc1)C(=O)N[C@]1(C)CCCCCCC=CCCC[C@@](C)(C(=O)N[C@@H](C)C(=O)N[C@@H](Cc2c[nH]cn2)C(=O)N[C@@H](Cc2ccccc2)C(=O)N[C@@H](C)C(N)=O)NC(=O)[C@H](CC(C)C)NC(=O)[C@H](CCC(N)=O)NC(=O)[C@H](C(C)C)NC(=O)[C@H](Cc2c[nH]c3ccccc23)NC(=O)[C@H](Cc2c[nH]cn2)NC(=O)[C@H](CCC(=O)O)NC1=O)[C@@H](C)O (single isomer, unassigned) [compound 194] | – | – | – | – |
| – | – | – | – | CC(=O)N[C@@H](CC(C)C)C(=O)N[C@H](C(=O)N[C@@H](Cc1ccccc1)C(=O)N[C@]1(C)CCCCCCC=CCCC[C@@](C)(C(=O)N[C@@H](CO)C(=O)N[C@@H](C)C(=O)N[C@@H](C)C(N)=O)NC(=O)[C@H](CC(C)C)NC(=O)[C@H](C)NC(=O)[C@H](C)NC(=O)[C@H](Cc2c[nH]c3ccccc23)NC(=O)[C@H](CCC(=O)O)NC(=O)[C@H](C)NC1=O)[C@@H](C)O (single isomer, unassigned) [compound 199] | 100 to 1000 | 100 to 1000 | 10 to 100 | < 10 |
| 100 to 1000 | 100 to 1000 | 10 to 100 | < 10 | CC(=O)N[C@@H](CC(C)C)C(=O)N[C@H](C(=O)N[C@@H](Cc1ccccc1)C(=O)N[C@]1(C)CCCCCCC=CCCC[C@@](C)(C(=O)N[C@@H](CO)C(=O)N[C@@H](C)C(=O)N[C@@H](C)C(N)=O)NC(=O)[C@H](CC(C)C)NC(=O)[C@H](C)NC(=O)[C@H](C)NC(=O)[C@H](Cc2c[nH]c3ccccc23)NC(=O)[C@H](CO)NC(=O)[C@H](C)NC1=O)[C@@H](C)O (single isomer, unassigned) [compound 201] | – | – | – | – |
| 100 to 1000 | 10 to 100 | 10 to 100 | < 10 | CC[C@H](C)[C@H](NC(=O)[C@H](Cc1c[nH]cn1)NC(=O)[C@H](C)NC(=O)[C@]1(C)CCCC=CCCCCCC[C@@](C)(NC(=O)[C@H](Cc2ccccc2)NC(=O)[C@@H](NC(=O)[C@H](CC(C)C)NC(C)=O)[C@@H](C)O)C(=O)N[C@@H](CCC(=O)O)C(=O)N[C@@H](Cc2c[nH]cn2)C(=O)N[C@@H](Cc2c[nH]c3ccccc23)C(=O)N[C@@H](C)C(=O)N[C@@H](CCC(N)=O)C(=O)N[C@@H](CC(C)C)C(=O)N1)C(=O)N[C@H](C)C(N)=O (single isomer, unassigned) [compound 206] | – | – | – | – |
| 100 to 1000 | 10 to 100 | < 10 | < 10 | CC(=O)N[C@@H](CC(C)C)C(=O)N[C@H](C(=O)N[C@@H](Cc1ccccc1)C(=O)N[C@]1(C)CCCCCCC=CCCC[C@@](C)(C(=O)N[C@@H](C)C(=O)N[C@@H](C)C(=O)N[C@@H](Cc2ccccc2)C(=O)N[C@H](C)C(N)=O)NC(=O)[C@H](CC(C)C)NC(=O)[C@H](CCC(N)=O)NC(=O)[C@H](C)NC(=O)[C@H](Cc2c[nH]c3ccccc23)NC(=O)[C@H](Cc2ccc(O)cc2)NC(=O)[C@H](C)NC1=O)[C@@H](C)O (single isomer, unassigned) [compound 210] | – | – | – | – |
| 100 to 1000 | 10 to 100 | < 10 | < 10 | CC(=O)N[C@@H](CC(C)C)C(=O)N[C@H](C(=O)N[C@@H](Cc1ccccc1)C(=O)N[C@]1(C)CCCCCCC=CCCC[C@@](C)(C(=O)N[C@@H](C)C(=O)N[C@@H](C)C(=O)N[C@H](C(=O)N[C@H](C)C(N)=O)C(C)C)NC(=O)[C@H](CC(C)C)NC(=O)[C@H](CCC(N)=O)NC(=O)[C@H](C)NC(=O)[C@H](Cc2c[nH]c3ccccc23)NC(=O)[C@H](Cc2ccc(O)cc2)NC(=O)[C@H](C)NC1=O)[C@@H](C)O (single isomer, unassigned) [compound 213] | – | – | – | – |
| 100 to 1000 | 10 to 100 | 10 to 100 | < 10 | CC(=O)N[C@@H](CC(C)C)C(=O)N[C@H](C(=O)N[C@@H](Cc1ccccc1)C(=O)N[C@]1(C)CCCCCCC=CCCC[C@@](C)(C(=O)N[C@@H](C)C(=O)N[C@@H](C)C(=O)N[C@@H](CC(C)C)C(=O)N[C@H](C)C(N)=O)NC(=O)[C@H](CC(C)C)NC(=O)[C@H](CCC(N)=O)NC(=O)[C@H](C)NC(=O)[C@H](Cc2c[nH]c3ccccc23)NC(=O)[C@H](Cc2ccc(O)cc2)NC(=O)[C@H](C)NC1=O)[C@@H](C)O (single isomer, unassigned) [compound 215] | – | – | – | – |
